Residues, ends and D or L forms follow the SMILES beside them.
How the values were obtained:
[1] = target: T1, Human tissue plasminogen activator (tPA) (Two chains, Sigma) (Homo sapiens, UniProt P00750); test: In vitro chromogenic assay for tissue plasminogen activator (S2288 cleavage); format: biochemical; details: assay buffer pH 7.5, ambient temperature; read-out: Km (substrate concentration equal to Km)
T1 construct: (tPA) (Two chains, Sigma); purchased Sigma
Description: (§1) The activities were determined as an initial rate of cleavage of the peptide p-nitroanilide by the enzyme. The cleavage product, p-nitroaniline, absorbs at 405 nm with a molar extinction coefficient of 9920M^-1 cm^-1.
(§2) 50 mM TrisHCl, 150 mM NaCl, 2.5 mM CaCl2, and 0.1% polyethylene glycol 6000, pH 7.5.
3. Human tissue plasminogen activator (tPA) (Two chains, Sigma) stock solution: 1 mg/mL, stored at -80° C. (working solution (2×): 1361 ng/mL in assay buffer, prepare prior to use).
3. S2288 (tPA assay) stock solution: 10 mM in dH2 O, stored at 4° C. (working solution (4×): 1484 μM in assay buffer). (All substrate working solutions were prepared on assay […].)
Assays were performed in 96-well microtiter plates in a total volume of 200 μl. […] Concentrations of the standard inhibitor compound in the assay were from 5 μM to 0.021 μM in 1 to 3 dilution. Concentration of the test compounds in the assay typically were from 10 μM to 0.041 μM in 1 to 3 dilution. For potent test compounds, the concentrations used in the factor Xa assay were further diluted 100 fold (100 nM to 0.41 nM) or 1000 fold (10 nM to 0.041 nM). All substrate concentrations used are equal to their Km values under the present assay conditions. Assays were performed at ambient temperature. […]
(§3) The enzyme kinetics were measured at 405 nm, at 10 seconds interval, for five minutes in a THERMOmax plate reader at ambient temperature.

[2] = target: T2, Human thrombin (Homo sapiens, UniProt P00734); test: In vitro chromogenic assay for thrombin (S2302 cleavage); format: biochemical; details: assay buffer pH 7.5, ambient temperature; read-out: Km (substrate concentration equal to Km)
T2 construct: Human thrombin stock solution; purchased Enzyme Research Lab
Description: as §1, §2
2. Human thrombin stock solution: Stored at -80° C. (working solution (2×): 1200 ng/mL or 40 nM in assay buffer, prepare prior to use).
1. S2222 (FXa assay) stock solution: 6 mM in dH2 O, store at 4° C. (working solution (4×): 656 μM in assay buffer). p1 2. S2302 (Thrombin assay) stock solution: 10 mM in dH2 O, stored at 4° C. (working solution (4×): 1200 μM in assay buffer).
Assays were performed in 96-well microtiter plates in a total volume of 200 μl. […] Concentrations of the standard inhibitor compound in the assay were from 5 μM to 0.021 μM in 1 to 3 dilution. Concentration of the test compounds in the assay typically were from 10 μM to 0.041 μM in 1 to 3 dilution. […]
as §3
Enzyme rates were calculated as mOD/min based on the first two minutes readings. The IC50 values were determined by fitting the data to the log-logit equation (linear) or the Morrison equation (non-linear) with an EXCEL spread-sheet. […]

T1 sequence (P00750 311-562 limits assumed): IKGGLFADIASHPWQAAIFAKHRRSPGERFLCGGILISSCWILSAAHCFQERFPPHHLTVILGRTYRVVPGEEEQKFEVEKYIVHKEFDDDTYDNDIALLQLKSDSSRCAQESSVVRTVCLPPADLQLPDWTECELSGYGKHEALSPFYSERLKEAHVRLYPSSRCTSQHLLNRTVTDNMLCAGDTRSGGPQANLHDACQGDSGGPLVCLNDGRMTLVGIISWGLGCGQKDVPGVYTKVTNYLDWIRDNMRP
T1 sequence (P00750 36-310 partner limits assumed): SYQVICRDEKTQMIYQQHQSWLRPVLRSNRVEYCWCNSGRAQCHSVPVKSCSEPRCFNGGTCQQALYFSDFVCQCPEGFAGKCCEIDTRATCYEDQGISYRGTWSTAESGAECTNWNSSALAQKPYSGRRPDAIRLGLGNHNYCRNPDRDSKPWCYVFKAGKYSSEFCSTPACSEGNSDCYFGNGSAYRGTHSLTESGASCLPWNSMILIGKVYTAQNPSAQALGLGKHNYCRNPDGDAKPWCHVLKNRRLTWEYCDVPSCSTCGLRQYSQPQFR

Row | SMILES | Km [1] [µM] | Km [2] [µM]
1 | CC[C@@H](C)[C@@H](N)C(=O)N1CCC[C@H]1C(=O)N[C@@H](CCCN=C(N)N)C(=O)Nc1ccc([N+](=O)[O-])cc1 [Example S2288] (HELM PEPTIDE1{[dI].P.R.[O=[N+]([O-])c1ccc(N[*:1])cc1]}$$$$V2.0) | 371 | 
2 | N=C(N)NCCC[C@H](NC(=O)[C@H](Cc1ccccc1)NC(=O)[C@H]1CCCN1)C(=O)Nc1ccc([N+](=O)[O-])cc1 [Example S2302] (HELM PEPTIDE1{[dP].F.R.[O=[N+]([O-])c1ccc(N[*:1])cc1]}$$$$V2.0) |  | 300
